# Results: the NIST ThermoML archive (doi:10.1021/je5008789)
# ± gives the expanded uncertainty stated by the source.
# Conditions: Liquid; for mass density: Vibrating tube method; for viscosity: Vibrating wire viscometry
smiles,measurement,setting,value
"CC(C)CCCC(C)CCCC(C)CCCCC(C)CCCC(C)CCCC(C)C (stereo unspecified) [2,6,10,15,19,23-hexamethyltetracosane]",mass density,"338.19 K, 1050 kPa",779.26 ± 1.6 kg/m3
same,viscosity,"338.19 K, 1050 kPa",6.815 ± 0.14 mPa·s
same,mass density,"338.19 K, 21210 kPa",792.77 ± 1.6 kg/m3
same,viscosity,"338.19 K, 21210 kPa",9.666 ± 0.2 mPa·s
same,mass density,"338.2 K, 40640 kPa",803.93 ± 1.7 kg/m3
same,viscosity,"338.2 K, 40640 kPa",13.19 ± 0.28 mPa·s
same,mass density,"338.2 K, 60420 kPa",814.29 ± 1.7 kg/m3
same,viscosity,"338.2 K, 60420 kPa",17.71 ± 0.37 mPa·s
same,mass density,"338.2 K, 79830 kPa",822.46 ± 1.8 kg/m3
same,viscosity,"338.2 K, 79830 kPa",23.48 ± 0.49 mPa·s
same,mass density,"338.2 K, 100230 kPa",831.55 ± 1.9 kg/m3
same,viscosity,"338.2 K, 100230 kPa",30.94 ± 0.65 mPa·s
same,mass density,"338.2 K, 140240 kPa",845.12 ± 1.9 kg/m3
same,viscosity,"338.2 K, 140240 kPa",52.3 ± 1.1 mPa·s
same,mass density,"338.2 K, 161300 kPa",851.46 ± 2 kg/m3
same,viscosity,"338.2 K, 161300 kPa",68.14 ± 1.4 mPa·s
same,mass density,"338.21 K, 119820 kPa",837.96 ± 1.9 kg/m3
same,viscosity,"338.21 K, 119820 kPa",40.32 ± 0.85 mPa·s
same,mass density,"338.22 K, 940 kPa",778.91 ± 1.6 kg/m3
same,viscosity,"338.22 K, 940 kPa",6.808 ± 0.14 mPa·s
same,mass density,"338.29 K, 1010 kPa",779.46 ± 1.6 kg/m3
same,viscosity,"338.29 K, 1010 kPa",6.83 ± 0.14 mPa·s
same,mass density,"373.12 K, 620 kPa",756.02 ± 1.5 kg/m3
same,viscosity,"373.12 K, 620 kPa",3.122 ± 0.066 mPa·s
same,mass density,"373.12 K, 780 kPa",756.09 ± 1.5 kg/m3
same,viscosity,"373.12 K, 780 kPa",3.125 ± 0.066 mPa·s
same,mass density,"373.12 K, 20350 kPa",771.55 ± 1.6 kg/m3
same,viscosity,"373.12 K, 20350 kPa",4.234 ± 0.089 mPa·s
same,mass density,"373.12 K, 39970 kPa",784.5 ± 1.6 kg/m3
same,viscosity,"373.12 K, 39970 kPa",5.565 ± 0.12 mPa·s
same,mass density,"373.12 K, 60030 kPa",795.89 ± 1.7 kg/m3
same,viscosity,"373.12 K, 60030 kPa",7.219 ± 0.15 mPa·s
same,mass density,"373.12 K, 80950 kPa",806.36 ± 1.8 kg/m3
same,viscosity,"373.12 K, 80950 kPa",9.293 ± 0.2 mPa·s
same,mass density,"373.12 K, 101160 kPa",815.48 ± 1.9 kg/m3
same,viscosity,"373.12 K, 101160 kPa",11.72 ± 0.25 mPa·s
same,mass density,"373.12 K, 120420 kPa",823.57 ± 1.9 kg/m3
same,viscosity,"373.12 K, 120420 kPa",14.4 ± 0.3 mPa·s
same,mass density,"373.12 K, 140640 kPa",831.1 ± 2 kg/m3
same,viscosity,"373.12 K, 140640 kPa",17.83 ± 0.38 mPa·s
same,mass density,"373.12 K, 159510 kPa",837.61 ± 2 kg/m3
same,viscosity,"373.12 K, 159510 kPa",21.73 ± 0.46 mPa·s
same,mass density,"373.12 K, 180460 kPa",843.98 ± 2.1 kg/m3
same,viscosity,"373.12 K, 180460 kPa",26.77 ± 0.56 mPa·s
same,mass density,"373.12 K, 201380 kPa",850.63 ± 2.1 kg/m3
same,viscosity,"373.12 K, 201380 kPa",32.72 ± 0.69 mPa·s
same,mass density,"388.13 K, 890 kPa",746.65 ± 1.5 kg/m3
same,viscosity,"388.13 K, 890 kPa",2.432 ± 0.055 mPa·s
same,mass density,"388.13 K, 20290 kPa",762.98 ± 1.6 kg/m3
same,viscosity,"388.13 K, 20290 kPa",3.25 ± 0.069 mPa·s
same,mass density,"388.13 K, 80490 kPa",799.25 ± 1.8 kg/m3
same,viscosity,"388.13 K, 80490 kPa",6.828 ± 0.14 mPa·s
same,mass density,"388.13 K, 101530 kPa",809.12 ± 1.9 kg/m3
same,viscosity,"388.13 K, 101530 kPa",8.548 ± 0.18 mPa·s
same,mass density,"388.13 K, 120960 kPa",817.16 ± 1.9 kg/m3
same,viscosity,"388.13 K, 120960 kPa",10.46 ± 0.22 mPa·s
same,mass density,"388.13 K, 139900 kPa",824.59 ± 2 kg/m3
same,viscosity,"388.13 K, 139900 kPa",12.58 ± 0.26 mPa·s
same,mass density,"388.14 K, 1100 kPa",746.78 ± 1.5 kg/m3
same,viscosity,"388.14 K, 1100 kPa",2.436 ± 0.055 mPa·s
same,mass density,"388.14 K, 40380 kPa",776.95 ± 1.6 kg/m3
same,viscosity,"388.14 K, 40380 kPa",4.242 ± 0.089 mPa·s
same,mass density,"388.14 K, 59850 kPa",788.53 ± 1.7 kg/m3
same,viscosity,"388.14 K, 59850 kPa",5.392 ± 0.11 mPa·s
same,mass density,"388.14 K, 160800 kPa",832.35 ± 2 kg/m3
same,viscosity,"388.14 K, 160800 kPa",15.31 ± 0.32 mPa·s
same,mass density,"388.14 K, 180610 kPa",838.96 ± 2.1 kg/m3
same,viscosity,"388.14 K, 180610 kPa",18.4 ± 0.39 mPa·s
same,mass density,"388.14 K, 201470 kPa",845.55 ± 2.1 kg/m3
same,viscosity,"388.14 K, 201470 kPa",22.16 ± 0.47 mPa·s
same,mass density,"413.17 K, 1050 kPa",730.56 ± 1.5 kg/m3
same,viscosity,"413.17 K, 1050 kPa",1.691 ± 0.037 mPa·s
same,mass density,"413.18 K, 20110 kPa",748.65 ± 1.6 kg/m3
same,viscosity,"413.18 K, 20110 kPa",2.233 ± 0.047 mPa·s
same,mass density,"413.18 K, 40280 kPa",763.94 ± 1.6 kg/m3
same,viscosity,"413.18 K, 40280 kPa",2.885 ± 0.061 mPa·s
same,mass density,"413.18 K, 60200 kPa",776.68 ± 1.7 kg/m3
same,viscosity,"413.18 K, 60200 kPa",3.62 ± 0.076 mPa·s
same,mass density,"413.21 K, 80740 kPa",788.16 ± 1.8 kg/m3
same,viscosity,"413.21 K, 80740 kPa",4.485 ± 0.095 mPa·s
same,mass density,"413.22 K, 100350 kPa",797.82 ± 1.9 kg/m3
same,viscosity,"413.22 K, 100350 kPa",5.454 ± 0.12 mPa·s
same,mass density,"413.22 K, 120460 kPa",806.56 ± 1.9 kg/m3
same,viscosity,"413.22 K, 120460 kPa",6.574 ± 0.14 mPa·s
same,mass density,"413.24 K, 610 kPa",730.1 ± 1.5 kg/m3
same,viscosity,"413.24 K, 610 kPa",1.68 ± 0.037 mPa·s
